The structures appear in SMILES notation. ≈ marks a conversion by molar mass, not a printed value.

This passage reports IC50 results from paper PMC10974732 (2024).

The assay concerns 2B.N2A9 (DNA, aptamer) CATCTGCAGTGTGGCACCATGGGCATTGGGGGGCGAGGGTGGTTGGAGCGTTTGTGTGCGACGTGCTGAGCGTGAATTCGC
Description: indirect competitive ELOSA (SA-HRP/TMB). The note with it: 37 °C, 1 h; 50 nM aptamer; competes with immobilised Neu5Gc-BSA (1 μg/mL coating).
Take `CC(=O)N[C@@H]1C(O)O[C@H](CO)[C@@H](O)[C@@H]1O` (stereo partly shown): the IC50 (as a rule, the concentration that inhibits the measured activity by half) is listed as 36,307.8 ng/mL. In turn, `CC(=O)N[C@H]1[C@H]([C@H](O)[C@H](O)CO)OC(O)(C(=O)O)C[C@@H]1O` (stereo partly shown) showed an IC50 of 467.74 ng/mL (≈ 1.51 µM).

For the molecule `O=C(CO)N[C@H]1[C@H]([C@H](O)[C@H](O)CO)OC(O)(C(=O)O)C[C@@H]1O` (stereo partly shown), the IC50 worked out at 9.35 ng/mL (≈ 0.0287 µM). In the case of `O=C(O)C1(O)C[C@H](O)[C@@H](O)[C@H]([C@H](O)[C@H](O)CO)O1` (stereo partly shown), the IC50 stood at 1659.58 ng/mL (≈ 6.19 µM).

`OC[C@H]1OC(O)[C@H](O)[C@@H](O)[C@@H]1O` (stereo partly shown): the IC50 is > 93,500.00 ng/mL. Consider `OC[C@H]1O[C@@](CO)(O[C@H]2O[C@H](CO)[C@@H](O)[C@H](O)[C@H]2O)[C@@H](O)[C@@H]1O`, for which the IC50 is recorded as > 93,500.00 ng/mL. With `OC[C@H]1O[C@H](O[C@H]2[C@H](O)[C@@H](O)C(O)O[C@@H]2CO)[C@H](O)[C@@H](O)[C@@H]1O` (stereo partly shown), the IC50 was > 93,500.00 ng/mL.
